We go through 37 compounds from patent publication US8906852B2 (MethylGene Inc., priority 2010, dated 2014).

The term IC50 denotes the concentration that gives 50% inhibition.

The structures appear in SMILES notation.

T1 sequence (P35968 806-1356): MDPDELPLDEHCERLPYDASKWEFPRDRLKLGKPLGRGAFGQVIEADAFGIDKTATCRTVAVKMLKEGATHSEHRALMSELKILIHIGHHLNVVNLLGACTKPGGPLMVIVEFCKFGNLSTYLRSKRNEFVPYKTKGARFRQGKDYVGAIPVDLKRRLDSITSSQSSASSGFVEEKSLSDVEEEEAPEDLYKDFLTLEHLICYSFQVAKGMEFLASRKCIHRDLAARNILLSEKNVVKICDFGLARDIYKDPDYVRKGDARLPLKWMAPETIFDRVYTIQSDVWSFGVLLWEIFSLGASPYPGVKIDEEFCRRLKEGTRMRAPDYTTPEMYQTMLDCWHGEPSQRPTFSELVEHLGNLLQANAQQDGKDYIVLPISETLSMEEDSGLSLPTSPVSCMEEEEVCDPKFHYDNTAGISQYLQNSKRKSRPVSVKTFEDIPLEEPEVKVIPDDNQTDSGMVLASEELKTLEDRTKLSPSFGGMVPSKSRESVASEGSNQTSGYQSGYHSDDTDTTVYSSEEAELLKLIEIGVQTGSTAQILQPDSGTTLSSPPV

The assay concerns the target T1, VEGFR/KDR (Homo sapiens, UniProt P35968).
T1 construct: made in house; host or cells: Sf9 cells (Spodoptera frugiperda), baculovirus
In words: VEGFR/KDR kinase inhibition, DELFIA assay. The format is biochemical. The conditions noted are these: ATP 0.6 uM (2x Km), enzyme 5 nM. The procedure, abridged:
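Enzyme (5 nM) pre-incubated 4 min on ice with inhibitor and Mg-ATP (0.6 uM, 2× Km), then reacted 10-30 min at 30° C on immobilized poly(Glu4,Tyr). EDTA-quenched phosphotyrosine detected with Europium-labeled antibody by time-resolved fluorescence; IC50 from concentration series.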
In turn, `O=C(Nc1ccc(Oc2ccnc3cc(-c4cnn(CCN5CCOCC5)c4)sc23)c(F)c1)NC1CC1` [Compound 155, 1-cyclopropyl-3-(3-fluoro-4-(2-(1-(2-morpholinoethyl)-1H-pyrazol-4-yl)thieno[3,2-b]pyridin-7-yloxy)phenyl)urea] gave an IC50 of less than 50 nM.
With `CCN(CC)CCn1cc(-c2cc3nccc(Oc4ccc(NC(=O)NC5CC5)cc4F)c3s2)nn1` [Compound 363], the IC50 is less than 50 nM.
`CCC(=O)N(CCOC)Cc1ccc(-c2cc3nccc(Oc4ccc(NC(=O)NC5CC5)cc4F)c3s2)nc1` [Compound 86, N-((6-(7-(4-(3-cyclopropylureido)-2-fluorophenoxy)thieno[3,2-b]pyridin-2-yl)pyridin-3-yl)methyl)-N-(2-methoxyethyl)propionamide] displayed a half-inhibitory concentration (IC50) of less than 50 nM.
On to `O=C(Nc1ccc(Oc2ccnc3cc(C(=O)N4CCCCC4)sc23)c(F)c1)NC1CC1` [Compound 447], for which the half-inhibitory concentration (IC50) is less than 50 nM.
`CC(C)NC(=O)Nc1ccc(Oc2ccnc3cc(-c4ccc(C(=O)N5CCCC5)cc4)sc23)c(F)c1` [Compound 128, 1-(3-fluoro-4-(2-(4-(pyrrolidine-1-carbonyl)phenyl)thieno[3,2-b]pyridin-7-yloxy)phenyl)-3-isopropylurea] showed an IC50 of less than 50 nM.
For `CC(=O)N1CCN(Cc2ccc(-c3cc4nccc(Oc5ccc(NC(=O)NC6CC6)cc5F)c4s3)nc2)CC1` [Compound 66, 1-(4-(2-(5-((4-acetylpiperazin-1-yl)methyl)pyridin-2-yl)thieno[3,2-b]pyridin-7-yloxy)-3-fluorophenyl)-3-cyclopropylurea], the IC50 was less than 50 nM.
As for `NC1CN(Cc2ccc(-c3cc4nccc(Oc5ccc(NC(=O)NC6CC6)cc5F)c4s3)nc2)C1` [Compound 402], the figure is less than 50 nM.
As for `O=C(Nc1ccc(Oc2ccnc3cc(-c4ccc(C(=O)N5CCN(CCOCCO)CC5)cn4)sc23)c(F)c1)NC1CC1` [Compound 396], the figure is less than 50 nM; as for `O=C(Nc1ccc(Oc2ccnc3cc(-c4ccc(CN5CCOCC5=O)cn4)sc23)c(F)c1)NC1CC1` [Compound 123, 1-cyclopropyl-3-(3-fluoro-4-(2-(5-((3-oxomorpholino)methyl)pyridin-2-yl)thieno[3,2-b]pyridin-7-yloxy)phenyl)urea], less than 50 nM; as for `C[C@H]1CN(Cc2ccc(-c3cc4nccc(Oc5ccc(NC(=O)NC6CC6)cc5F)c4s3)nc2)CCN1CCO` [Compound 582, (S)-1-cyclopropyl-3-(3-fluoro-4-(2-(5-((4-(2-hydroxyethyl)-3-methylpiperazin-1-yl)methyl)pyridin-2-yl)thieno[3,2-b]pyridin-7-yloxy)phenyl)urea], less than 50 nM.
With `COCCN(Cc1ccc(-c2cc3nccc(Oc4ccc(NC(=O)NC5CC5)cc4F)c3s2)cc1)C(C)=O` [Compound 114, N-(4-(7-(4-(3-cyclopropylureido)-2-fluorophenoxy)thieno[3,2-b]pyridin-2-yl)benzyl)-N-(2-methoxyethyl)acetamide] the figure was less than 50 nM; with `O=C(Nc1ccc(Oc2ccnc3cc(-c4ccc(CCN5CCCC5=O)cn4)sc23)c(F)c1)NC1CC1` [Compound 295, 1-cyclopropyl-3-(3-fluoro-4-(2-(5-(2-(2-oxopyrrolidin-1-yl)ethyl)pyridin-2-yl)thieno[3,2-b]pyridin-7-yloxy)phenyl)urea], less than 50 nM.
Take `O=C(Nc1ccc(Oc2ccnc3cc(-c4ccc(CN5C[C@@H]6C[C@H]5CN6)cn4)sc23)c(F)c1)NC1CC1` [Compound 73]: the 50% inhibitory concentration (IC50) was less than 50 nM.
With `COCCN(Cc1ccc(-c2cc3nccc(Oc4ccc(NC(=O)NC5CC5)cc4F)c3s2)cc1)C(=O)NC1CCCC1` [Compound 194, 1-(4-(7-(4-cyclopropylaminocarbonylamino-2-fluorophenoxy)thieno-[3,2-b]pyridin-2-yl)benzyl)-3-cyclopentyl-1-(2-methoxyethyl)urea] the figure was less than 50 nM.
With `O=C(O)CCCCCCC(=O)N1CCN(Cc2ccc(-c3cc4nccc(Oc5ccc(NC(=O)NC6CC6)cc5F)c4s3)nc2)CC1` [Compound 544] the figure was less than 50 nM; with `O=C(Nc1ccc(Oc2ccnc3cc(-c4cn(CCC(=O)N5CCCC5)nn4)sc23)c(F)c1)NC1CC1` [Compound 380], less than 50 nM; with `COC(=O)[C@@H]1CCCN1C(=O)c1cc2nccc(Oc3ccc(NC(=O)NC4CC4)cc3F)c2s1` [Compound 449], less than 50 nM.
As for `O=C(Nc1ccc(Oc2ccnc3cc(-c4ccc(CN5CC[C@H](F)C5)cn4)sc23)c(F)c1)NC1CC1` [Compound 323, (S)-1-cyclopropyl-3-(3-fluoro-4-(2-(5-((3-fluoropyrrolidin-1-yl)methyl)pyridin-2-yl)thieno[3,2-b]pyridin-7-yloxy)phenyl)urea], the figure is less than 50 nM; as for `O=C(Nc1ccc(Oc2ccnc3cc(-c4ccc(CN5CCN(C(=O)[C@H]6CCC(=O)O6)CC5)cn4)sc23)c(F)c1)NC1CC1` [Compound 543], less than 50 nM.
Turning to `O=C(Nc1ccc(Oc2ccnc3cc(-c4ccc(CN5CC(C(=O)O)C5)cn4)sc23)c(F)c1)NC1CC1` [Compound 477, 1-((6-(7-(4-(3-cyclopropylureido)-2-fluorophenoxy)thieno[3,2-b]pyridin-2-yl)pyridin-3-yl)methyl)azetidine-3-carboxylic acid], the IC50 is less than 50 nM.
As for `CC(=O)OCC(=O)N(C)C1CCN(Cc2ccc(-c3cc4nccc(Oc5ccc(NC(=O)NC6CC6)cc5F)c4s3)nc2)CC1` [Compound 411], the figure is less than 50 nM; as for `CC(C)NC(=O)NC1CCN(Cc2ccc(-c3cc4nccc(Oc5ccc(NC(=O)NC6CC6)cc5F)c4s3)nc2)CC1` [Compound 355], less than 50 nM; as for `O=C(Nc1ccc(Oc2ccnc3cc(-c4cn(CCC(=O)N5CCOCC5)nn4)sc23)c(F)c1)NC1CC1` [Compound 377], less than 50 nM.
On to `CN1CCN(C(=O)C2CN(Cc3ccc(-c4cc5nccc(Oc6ccc(NC(=O)NC7CC7)cc6F)c5s4)nc3)C2)CC1` [Compound 489, 1-cyclopropyl-3-(3-fluoro-4-(2-(5-((3-(4-methylpiperazine-1-carbonyl)azetidin-1-yl)methyl)pyridin-2-yl)thieno[3,2-b]pyridin-7-yloxy)phenyl)urea], for which the IC50 is less than 50 nM.
With `C[C@H](CN1CCN(Cc2ccc(-c3cc4nccc(Oc5ccc(NC(=O)NC6CC6)cc5F)c4s3)nc2)CC1)C(=O)O` [Compound 574] the figure was less than 50 nM; with `CNC(=O)CCN1CCN(Cc2ccc(-c3cc4nccc(Oc5ccc(NC(=O)NC6CC6)cc5F)c4s3)nc2)CC1` [Compound 81, 3-(4-((6-(7-(4-(3-cyclopropylureido)-2-fluorophenoxy)thieno[3,2-b]pyridin-2-yl)pyridin-3-yl)methyl)piperazin-1-yl)-N-methylpropanamide], less than 50 nM.
`O=C(Nc1ccc(Oc2ccnc3cc(C(=O)N4CCC4)sc23)c(F)c1)NC1CC1` [Compound 446]: the IC50 is less than 50 nM.
With `O=C(Nc1ccc(Oc2ccnc3cc(-c4ccc(CN5CCN(C(=O)CCO)CC5)cn4)sc23)c(F)c1)NC1CC1` [Compound 545] the figure was less than 50 nM.
Compound `COCCN(CCn1cc(-c2cc3nccc(Oc4ccc(NC(=O)NC5CC5)cc4F)c3s2)cn1)C(=O)CO` [Compound 257, N-(2-(4-(7-(4-(3-cyclopropylureido)-2-fluorophenoxy)thieno[3,2-b]-pyridin-2-yl)-1H-pyrazol-1-yl)ethyl)-2-hydroxy-N-(2-methoxyethyl)acetamide] showed an IC50 of less than 50 nM.
Take `O=C(Nc1ccc(Oc2ccnc3cc(-c4ccc(CN5CC(O)CC5=O)cn4)sc23)c(F)c1)NC1CC1` (racemic) [Compound 111, (±)-1-cyclopropyl-3-(3-fluoro-4-(2-(5-((4-hydroxy-2-oxopyrrolidin-1-yl)methyl)pyridin-2-yl)thieno[3,2-b]pyridin-7-yloxy)phenyl)urea]: the IC50 is less than 50 nM.
As for `CC1(C)CN(Cc2ccc(-c3cc4nccc(Oc5ccc(NC(=O)NC6CC6)cc5F)c4s3)nc2)CCN1C(=O)CO` [Compound 498, 1-cyclopropyl-3-(3-fluoro-4-(2-(5-((4-(2-hydroxyacetyl)-3,3-dimethylpiperazin-1-yl)methyl)pyridin-2-yl)thieno[3,2-b]pyridin-7-yloxy)phenyl)urea], the figure is less than 50 nM.
With `CC1(C)CN(Cc2ccc(-c3cc4nccc(Oc5ccc(NC(=O)NC6CC6)cc5F)c4s3)nc2)CCN1CCO` [Compound 500, 1-cyclopropyl-3-(3-fluoro-4-(2-(5-((4-(2-hydroxyethyl)-3,3-dimethylpiperazin-1-yl)methyl)pyridin-2-yl)thieno[3,2-b]pyridin-7-yloxy)phenyl)urea] the figure was less than 50 nM; with `COCCN(C)C1CCN(Cc2ccc(-c3cc4nccc(Oc5ccc(NC(=O)NC6CC6)cc5F)c4s3)nc2)CC1` [Compound 416], less than 50 nM.
With `CC(=O)N[C@H]1CCN(Cc2ccc(-c3cc4nccc(Oc5ccc(NC(=O)NC6CC6)cc5F)c4s3)nc2)C1=O` [Compound 44, (S)-N-(l-((6-(7-(4-(3-cyclopropylureido)-2-fluorophenoxy)thieno[3,2-b]pyridin-2-yl)pyridin-3-yl)methyl)-2-oxopyrrolidin-3-yl)acetamide] the figure was less than 50 nM; with `CCOC(=O)CN(C)C1CCN(Cc2ccc(-c3cc4nccc(Oc5ccc(NC(=O)NC6CC6)cc5F)c4s3)nc2)CC1` [Compound 422, Ethyl 2-((1-((6-(7-(4-(3-cyclopropylureido)-2-fluorophenoxy)thieno[3,2-b]pyridin-2-yl)pyridin-3-yl)methyl)piperidin-4-yl)(methyl)amino)acetate], less than 50 nM; with `CCNC(=O)NC1CN(Cc2ccc(-c3cc4nccc(Oc5ccc(NC(=O)NC6CC6)cc5F)c4s3)nc2)C1` [Compound 408], less than 50 nM.
In turn, `O=C(Nc1ccc(Oc2ccnc3cc(C(=O)N4CCCC4)sc23)c(F)c1)NC1CC1` [Compound 445] displayed an IC50 of less than 50 nM.
